ChEMBL document CHEMBL1124274, “Synthesis, pharmacological action, and receptor binding affinity of the enantiomeric 1-(1-phenyl-3-methylcyclohexyl)piperidines” (J Med Chem, 1988)

Biological target: T1, Glutamate receptor ionotropic, NMDA 2C (Rattus norvegicus, UniProt Q00961)
Assay: Binding affinity against phencyclidine receptor was determined by the displacement of [3H]TCP of whole rat brain minus cerebellum.
Assay type: tissue-based

T1 sequence (Q00961 whole entry): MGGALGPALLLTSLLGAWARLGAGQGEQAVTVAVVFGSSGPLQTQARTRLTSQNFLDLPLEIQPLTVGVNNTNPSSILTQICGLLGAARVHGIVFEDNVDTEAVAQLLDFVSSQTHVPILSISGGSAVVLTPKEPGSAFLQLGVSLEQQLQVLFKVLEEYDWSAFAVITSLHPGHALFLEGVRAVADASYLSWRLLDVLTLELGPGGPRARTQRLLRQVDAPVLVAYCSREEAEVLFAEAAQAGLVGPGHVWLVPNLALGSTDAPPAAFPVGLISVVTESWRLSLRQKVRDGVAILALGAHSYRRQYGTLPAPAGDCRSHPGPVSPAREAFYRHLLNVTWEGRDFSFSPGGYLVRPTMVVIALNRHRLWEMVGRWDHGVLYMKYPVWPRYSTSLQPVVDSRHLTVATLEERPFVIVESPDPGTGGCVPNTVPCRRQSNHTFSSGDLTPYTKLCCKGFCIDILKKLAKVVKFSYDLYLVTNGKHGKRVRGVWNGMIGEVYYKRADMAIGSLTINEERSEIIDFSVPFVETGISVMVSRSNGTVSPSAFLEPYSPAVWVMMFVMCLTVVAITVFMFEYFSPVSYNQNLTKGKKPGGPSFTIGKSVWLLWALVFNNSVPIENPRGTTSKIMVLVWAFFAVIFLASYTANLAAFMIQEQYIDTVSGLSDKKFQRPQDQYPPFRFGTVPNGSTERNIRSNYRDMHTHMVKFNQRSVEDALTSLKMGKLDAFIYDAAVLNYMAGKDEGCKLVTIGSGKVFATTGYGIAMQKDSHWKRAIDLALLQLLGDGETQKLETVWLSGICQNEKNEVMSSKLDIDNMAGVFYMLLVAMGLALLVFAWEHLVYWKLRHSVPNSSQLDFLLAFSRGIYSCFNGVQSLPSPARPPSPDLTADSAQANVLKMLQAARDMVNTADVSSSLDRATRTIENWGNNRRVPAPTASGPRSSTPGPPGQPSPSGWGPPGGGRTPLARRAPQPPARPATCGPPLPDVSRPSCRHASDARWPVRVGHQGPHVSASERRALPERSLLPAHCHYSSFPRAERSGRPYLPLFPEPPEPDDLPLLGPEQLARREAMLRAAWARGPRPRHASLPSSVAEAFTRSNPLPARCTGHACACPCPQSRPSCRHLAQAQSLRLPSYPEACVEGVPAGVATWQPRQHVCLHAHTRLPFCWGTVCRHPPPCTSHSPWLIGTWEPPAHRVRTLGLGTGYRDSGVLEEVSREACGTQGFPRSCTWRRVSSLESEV

Row | SMILES | Ki [nM]
1 | CC1CCCN(C2(c3ccccc3)CCCCC2)C1 (stereo in doubt; (+)) | 60
2 | C[C@@H]1CCC[C@@](c2ccccc2)(N2CCCCC2)C1 | 6800
3 | CC1CCCN(C2(c3ccccc3)CCCCC2)C1 (stereo in doubt; (-)) | 2150
4 | C[C@@H]1CCC[C@](c2ccccc2)(N2CCCCC2)C1 | 820
5 | c1ccc(C2(N3CCCCC3)CCCCC2)cc1 [PHENCYCLIDINE] | 60
6 | C[C@H]1CCC[C@](c2ccccc2)(N2CCCCC2)C1 | 170
7 | C[C@H]1CCC[C@@](c2ccccc2)(N2CCCCC2)C1 | 3300

Biological target: T1, Glutamate receptor ionotropic, NMDA 2C
Assay: Inhibition activity against binding of phencyclidine receptor was determined by the displacement of [3H]-TCP of whole rat brain minus cerebellum.
Assay type: tissue-based

Row | SMILES | IC50 [nM]
8 | c1ccc(C2(N3CCCCC3)CCCCC2)cc1 [PHENCYCLIDINE] | 600
